How the values were obtained:
[1] = cited from earlier work
From the text: In this study, we aimed to evaluate the feasibility of delivering a naked peptide fused with a cell-penetrating peptide (CPP) to the heart via the lung-to-heart route without encapsulation in NPs. CPPs, which are the peptide sequences enriched in arginine and lysine residues, facilitate the translocation of hydrophilic macromolecules such as proteins and peptides across cellular membranes. The specific CPP used in this study is a tandem repeat of NP2 (dNP2), a sequence derived from the human novel LZAP-binding protein (NLBP). Compared to TAT, the most widely used CPP originated fro ...

[2] = test system: C57/Bl6 mice, myocardial infarction; test: Myocardial infarction (LAD ligation) model: histology and heart morphology; type: in vivo; details: 200 nmoles IT 3 h prior to MI, vs PBS-injected
Description: (§1) Figure 2 Delivery of dNP2-SE via IT injection exerts cardio-protective effects upon MI. (A) Experimental scheme. A total of 200 nmol dNP2-SE or PBS was delivered via IT injection to adult (9-week-old) C57/Bl6 mice. MI was induced by LAD ligation 3 h post-injection. Hearts were harvested and analyzed 24 h post-MI. (B) Hearts were sectioned and stained with hematoxylin and eosin (H&E) or Picro Sirius Red. Representative images are shown. The LV chamber area was traced (shown in blue lines) and quantitated. The thickness of the LV free wall was also measured (shown in straight black lines). (C,D) LV chamber area and LV free wall thickness are presented as a graph. n = 6~7 per group; one-way ANOVA; *** p < 0.001. Bar represents the mean ±SEM. […] Bar represents the mean ±SEM. (F) TUNEL staining of the heart sections was performed using the DeadEnd Fluorometric TUNEL System. Apoptotic DNA fragmentation was labeled with fluorescein-12-dUTP (green). Nuclei were stained with Hoechst 33342 (blue). Representative images are shown. […] Bar represents the mean ± SEM.
(§2) The left side of the chest was shaved, and an intubation tube was inserted into the trachea. An incision was made in the 4th intercostal space, and the muscles were separated with scissors. The pericardium was gently removed. MI was induced by ligation of the left anterior descending (LAD) artery using a 7–0 black silk suture. The lower region of the artery turned pale immediately after ligation. The chest was sutured with 4–0 black silk. The same surgical procedure, without LAD ligation, was performed for the sham operation.
Harvested heart tissues were fixed in 4% PFA for 24 h at 4 °C and then washed with tap water. After discarding the tap water, the tissues were sequentially incubated in 70%, 80%, 95%, and 100% ethanol for 1 h each to dehydrate. Following the ethanol incubations, the tissues were incubated in xylene for 1 h and 20 min and then embedded in paraffin at 60 °C for 4 h. Paraffin-embedded tissues were sliced into 8 µm sections. After rehydration, the sections were used for histology as follows:
H&E staining: The sections were incubated in hematoxylin (26041-06, Electron Microscopy Science, Hatfield, PA, USA) for 30 s to stain the nuclei, followed by a 10 min wash in running tap water to remove excess stain. Subsequently, the sections were incubated in eosin (EOYA-05-OT-1L, Biognost, Zagreb, Croatia) for 2 min to stain the cytoplasm.
Picro Sirius staining: The sections were incubated for 60 min in Picro Sirius Red solution (ab150681, Abcam, Waltham, MA, USA), rinsed twice with 0.5% acetic acid, and then rinsed with absolute alcohol. H&E and Picro Sirius-stained slides were observed using a slide scanner (Aperio CS2, Leica, Germany).

[3] = test system: C57/Bl6 mice, myocardial infarction; test: Myocardial infarction model: TUNEL staining of heart sections; type: in vivo; details: 200 nmoles IT 3 h prior to MI; 24 h post-MI; LV free wall; n = 3~4 per group
Description: as §1, with “± SEM. […]” for “± SEM.”
The TUNEL assay was performed following the manufacturer’s instructions (DeadEnd Fluorometric TUNEL System, Promega, […], USA). […] Apoptotic signals and nuclear signals in the LV region were counted using cellSens TruAI 4.3 software (OLYMPUS, Tokyo, Japan), and the percentage of TUNEL-positive cells was calculated.

[4] = test system: C57/Bl6 mice, myocardial infarction; test: Myocardial infarction model: hemodynamic analysis (PV loops); type: in vivo; details: 200 nmoles IT 3 h prior to MI, 24 h post-MI, n = 5~8 per group
Description: Figure 3 Delivery of dNP2-SE via IT injection preserves cardiac contractility upon MI. Hemodynamic analyses were performed 24 h post-MI to measure cardiac contractility. (A) Representative PV loops are shown. (B) End-systolic pressure–volume relationship (ESPVR), dp/dt max (mmHg), and dp/dt min (mmHg) are shown. […] Bar represents the mean ± SEM.
as §2
An incision was made in the abdominal wall to expose the abdominal cavity. The diaphragm was carefully separated from the ribs to avoid bleeding during the incision procedures. The xiphoid process was lifted, and the diaphragm was pulled down and fixed to secure the site. The pericardium was then removed. A small puncture was made in the left ventricle using an insulin syringe, and a probe was inserted through the puncture (AD instruments, Dunedin, New Zealand). Data analysis was performed using LabChart 8 (AD instruments, New Zealand).

[5] = test system: SERCA2a, α-SMA, phospho-PLN (S16), PP1cα, PPP1R3A in heart; test: Myocardial infarction model: western blotting of heart lysates; type: in vivo, mice; details: 200 nmoles IT 3 h prior to MI, 24 h post-MI, western blot, n = 3 per group
From the text: Figure 4 Delivery of dNP2-SE via IT injection prevents molecular abnormalities upon MI. (A) Protein lysates obtained from the hearts shown in Figure 2 and Figure 3 were subjected to western blotting. Antibodies against SERCA2a, α-SMA, phospho-PLN, PLN, PP1cα, and PPP1R3A were used. β-actin was used as a loading control. (B) The ratio of phosphorylated PLN over PLN is shown. […] Bar represents the mean ± SEM.

[6] = target: T1, PP1cα-PPP1R3A-PLN complex (Mus musculus, UniProt P62137); test: Immunoprecipitation of heart lysates with anti-PP1cα antibodies; details: heart lysates of MI mice given 200 nmoles IT, IP with anti-PP1cα
T1 construct: from tissue; host or cells: mouse heart (C57BL/6, after MI, PBS- or dNP2-SE-injected)
T1 sequence (P62137 whole entry, one chain of several): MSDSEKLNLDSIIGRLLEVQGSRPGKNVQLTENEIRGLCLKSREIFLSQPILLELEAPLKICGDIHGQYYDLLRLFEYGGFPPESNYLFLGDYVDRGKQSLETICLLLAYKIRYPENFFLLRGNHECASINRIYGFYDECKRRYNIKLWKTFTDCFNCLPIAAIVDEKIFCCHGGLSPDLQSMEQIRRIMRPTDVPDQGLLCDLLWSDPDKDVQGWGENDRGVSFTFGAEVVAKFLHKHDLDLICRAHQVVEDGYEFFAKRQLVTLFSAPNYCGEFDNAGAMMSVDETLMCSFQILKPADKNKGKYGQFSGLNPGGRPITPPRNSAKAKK
From the text: (§3) Figure 5 Inhibitory mechanism of dNP2-SE on the PP1cα-PPP1R3A-PLN complex. (A) Protein lysates shown in Figure 4 were subjected to immunoprecipitation with anti-PP1cα antibodies and blotted with antibodies against PLN, PPP1R3A, and PP1cα (upper three rows). Inputs were also blotted with antibodies against PLN, PPP1R3A, and PP1cα (lower three rows). (B) Biotin-dNP2-SE was delivered to the normal heart via IT injection. Heart lysates were obtained, precipitated with streptavidin, and blotted with PP1cα, PPP1R3A, and PLN. Inputs were also blotted.
Immunoprecipitation was performed by adding 1 µg of the corresponding antibody to 1 mg of lysate. The mixture was gently inverted on a rotator overnight at 4 °C. After the primary antibody incubation, 30 µL of protein A-conjugated magnetic beads (88845, Thermo Fisher, Waltham, MA, USA) were added and incubated for 1 h to bind with the antibody. To isolate the protein–antibody–bead complex from the lysate, the mixture was centrifuged at 3000 rpm for 3 min at 4 °C and washed 4 times with lysis buffer. As a control for the precipitates, 2% of the initial protein amount used for pulldown was prepared as input. The collected complexes and inputs were used for western blots.

[7] = target: T2, PP1cα (Mus musculus, UniProt P62137); test: Streptavidin precipitation of biotin-dNP2-SE from heart lysates, blot for PP1cα; type: binding, mice; details: biotin-dNP2-SE delivered to the normal heart via IT injection
T2 construct: from tissue; host or cells: normal mouse heart after IT injection of biotin-dNP2-SE
T2 sequence (P62137 whole entry): as the sequence (P62137 whole entry, one chain of several) above
From the text: as §3

[8] = target: T3, PPP1R3A (Mus musculus, UniProt Q99MR9); test: Streptavidin precipitation of biotin-dNP2-SE from heart lysates, blot for PPP1R3A; type: binding, mice; details: biotin-dNP2-SE delivered to the normal heart via IT injection
T3 construct: from tissue; host or cells: normal mouse heart after IT injection of biotin-dNP2-SE
T3 sequence (Q99MR9 1-1089): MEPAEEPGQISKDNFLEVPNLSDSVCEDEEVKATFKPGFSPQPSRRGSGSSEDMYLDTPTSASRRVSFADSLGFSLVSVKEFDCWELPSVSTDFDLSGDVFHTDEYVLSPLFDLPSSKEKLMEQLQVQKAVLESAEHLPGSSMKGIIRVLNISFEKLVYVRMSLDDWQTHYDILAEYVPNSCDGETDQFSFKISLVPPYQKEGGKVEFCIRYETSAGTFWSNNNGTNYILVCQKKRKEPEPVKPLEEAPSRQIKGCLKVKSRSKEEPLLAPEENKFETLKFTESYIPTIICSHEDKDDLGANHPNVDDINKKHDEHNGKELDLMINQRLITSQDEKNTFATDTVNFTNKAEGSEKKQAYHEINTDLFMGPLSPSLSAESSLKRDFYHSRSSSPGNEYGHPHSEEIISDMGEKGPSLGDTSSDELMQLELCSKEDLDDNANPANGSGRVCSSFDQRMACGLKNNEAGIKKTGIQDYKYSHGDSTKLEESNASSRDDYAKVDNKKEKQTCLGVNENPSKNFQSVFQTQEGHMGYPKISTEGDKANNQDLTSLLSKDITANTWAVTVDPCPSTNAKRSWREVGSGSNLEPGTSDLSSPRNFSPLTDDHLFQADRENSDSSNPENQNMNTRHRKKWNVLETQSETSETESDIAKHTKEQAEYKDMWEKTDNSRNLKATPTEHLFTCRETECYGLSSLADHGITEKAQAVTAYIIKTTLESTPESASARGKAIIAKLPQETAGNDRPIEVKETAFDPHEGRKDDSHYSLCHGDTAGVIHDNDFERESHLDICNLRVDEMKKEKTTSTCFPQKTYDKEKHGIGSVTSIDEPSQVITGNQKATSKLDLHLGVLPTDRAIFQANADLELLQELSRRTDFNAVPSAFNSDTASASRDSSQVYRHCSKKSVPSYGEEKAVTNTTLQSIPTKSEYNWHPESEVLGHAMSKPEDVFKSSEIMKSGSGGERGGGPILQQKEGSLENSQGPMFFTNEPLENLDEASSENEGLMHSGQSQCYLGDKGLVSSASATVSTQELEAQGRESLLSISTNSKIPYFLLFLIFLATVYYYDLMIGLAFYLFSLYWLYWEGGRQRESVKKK
From the text: as §3

[9] = 24 h post-MI, n = 6~7 per group

KIKKVKKKGRKGSKIKKVKKKGRKG [dNP2]
Toxicity compared to TAT [1]: significantly lower toxicity than TAT

Ac-KIKKVKKKGRKGSKIKKVKKKGRKGRAETIEMPQ-NH2 [dNP2-SE]
Heart weight-to-body weight ratio under MI [2, 9]: normalized | LV chamber area under MI [2, 9]: remained normal | LV free wall thickness under MI [2, 9]: significantly preserved | Collagen deposition (Picro Sirius staining) under MI ([2]; hearts 24 h post-MI): markedly reduced | Increase in apoptotic cell populations (TUNEL-positive cells) under MI [3]: effectively prevented | PV loop pattern under MI [4]: indistinguishable from that of sham-operated hearts | Ejection fraction (EF) under MI ([4]; vs PBS-injected): significantly ameliorated | End-systolic pressure–volume ratio (ESPVR) under MI ([4]; vs PBS-injected): significantly normalized | LV end-diastolic volume (Vmax) under MI ([4]; vs PBS-injected): significantly ameliorated | LV end-systolic volume (Vmin) under MI ([4]; vs PBS-injected): significantly ameliorated | dP/dt max under MI ([4]; vs PBS-injected): significantly normalized | dP/dt min under MI ([4]; vs PBS-injected): significantly normalized | Phosphorylation of PLN at S16 (p-PLN) in heart under MI ([5]; p-PLN/PLN): fully preserved | Expression level of PP1cα in heart [5]: remained unchanged | MI-induced increase in PPP1R3A expression in heart [5]: prevented | MI-induced increase of α-smooth muscle actin (α-SMA) in heart [5]: attenuated | MI-induced reduction of SERCA2a expression in heart [5]: attenuated | Interactions between PP1cα and PPP1R3A (co-immunoprecipitation) [6]: not altered | Physical interactions between PP1cα and PLN (co-immunoprecipitation) ([6]; vs PBS-injected): completely abolished | Binding to PP1cα (streptavidin precipitation, western blot) [7]: strongly binds | Interaction with PPP1R3A (streptavidin precipitation, western blot) [8]: only weakly interacts

Reference: PMC11942360, “Intratracheal Delivery of a Phospholamban Decoy Peptide Attenuates Cardiac Damage Following Myocardial Infarction” (International Journal of Molecular Sciences, 2025)
